Read-outs that look alike come from different tables or passages of the source.
How the values were obtained:
[1] = system: T-Rex 293 cell line SC3 cells having increased expression of androgen receptor protein due to exposure to doxycycline; test: Cellular growth inhibition assay, T-Rex 293 SC3 cells with doxycycline (CellTiter-Glo, 72 hours); type: cell-based; settings: T-Rex 293 SC3 cells with increased androgen receptor expression due to doxycycline (10 ng/mL)
Outline: (§1)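 Doxycycline (10 ng/mL) was either included or omitted to toggle wild-type androgen receptor expression in SC3 cells, a T-Rex 293 clone, grown in stripped-serum, phenol red-free medium. After 72 hours with compound, viable cells were quantified by CellTiter-Glo 2.0.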

[2] = system: T-Rex 293 cell line SC3 cells lacking increased expression of androgen receptor protein; test: Cellular growth inhibition assay, T-Rex 293 SC3 cells without doxycycline (CellTiter-Glo, 72 hours); type: cell-based; settings: T-Rex 293 cell line SC3 cells not exposed to doxycycline (lacking increased androgen receptor expression)
Outline: as §1

VCaP cells = test: Cellular growth inhibition assay for VCaP cells (CellTiter-Glo, 72 hours); type: cell-based, human
Outline: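 Luminescent viability signal after 72 h of compound exposure gave GI50 values by four-parameter nonlinear regression. Compounds were added in 0.5% DMSO to cells plated 24 h earlier at 5000/well in DMEM containing 10% FBS.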

## Cc1sc2c(c1C)C(c1ccc(N3CC(C4CCN(c5ccc(C(=O)N[C@H]6CC[C@H](Oc7ccc(C#N)c(Cl)c7)CC6)nn5)CC4)C3)cn1)=N[C@@H](C)c1nnc(C)n1-2 [I-464]
[1]; 72 h
  GI50: < 500 nM
[2]; 72 h
  GI50: > 3000 nM
VCaP cells; Homo sapiens, VCaP, 72 h
  GI50: < 500 nM

## Cc1sc2c(c1C)C(c1ccc(OC3CC4(C3)CC3(CCN(c5ccc(C(=O)N[C@H]6CC[C@H](Oc7ccc(C#N)c(Cl)c7)CC6)nn5)CC3)C4)cn1)=N[C@@H](C)c1nnc(C)n1-2 [I-465]
[1]; 72 h
  GI50: < 500 nM
[2]; 72 h
  GI50: > 3000 nM
VCaP cells; Homo sapiens, VCaP, 72 h
  GI50: < 500 nM

## Cc1sc2c(c1C)C(c1ccc(CCN3[C@H](C)CN(c4ccc(C(=O)N[C@H]5CC[C@H](Oc6ccc(C#N)c(Cl)c6)CC5)nn4)C[C@@H]3C)cc1)=N[C@@H](Cc1ncco1)c1nnc(C)n1-2 [I-466]
[1]; 72 h
  GI50: < 500 nM
[2]; 72 h
  GI50: < 500 nM
VCaP cells; Homo sapiens, VCaP, 72 h
  GI50: < 500 nM

## Cc1sc2c(c1C)C(c1ccc(N3CCC(CCc4ccc(C(=O)N[C@H]5CC[C@H](Oc6ccc(C#N)c(Cl)c6)CC5)nn4)CC3)cc1)=N[C@@H](Cc1ncco1)c1nnc(C)n1-2 [I-467]
[1]; 72 h
  GI50: < 500 nM
[2]; 72 h
  GI50: < 500 nM
VCaP cells; Homo sapiens, VCaP, 72 h
  GI50: < 500 nM

## Cc1sc2c(c1C)C(c1ccc(OC3(C)CC4(CN(c5ccc(C(=O)N[C@H]6CC[C@H](Oc7ccc(C#N)c(Cl)c7)CC6)nn5)C4)C3)cc1)=N[C@@H](Cc1ncco1)c1nnc(C)n1-2 [I-468]
[1]; 72 h
  GI50: < 500 nM
[2]; 72 h
  GI50: < 500 nM
VCaP cells; Homo sapiens, VCaP, 72 h
  GI50: < 500 nM

## Cc1sc2c(c1C)C(c1ccc(N3CC4(CC(Cc5ccc(C(=O)N[C@H]6CC[C@H](Oc7ccc(C#N)c(Cl)c7)CC6)nn5)C4)C3)cc1)=N[C@@H](Cc1ncco1)c1nnc(C)n1-2 [I-469]
[1]; 72 h
  GI50: < 500 nM
[2]; 72 h
  GI50: > 3000 nM
VCaP cells; Homo sapiens, VCaP, 72 h
  GI50: < 500 nM

## Cc1sc2c(c1C)C(c1ccc(OCC3CC4(CCCN(c5ccc(C(=O)N[C@H]6CC[C@H](Oc7ccc(C#N)c(Cl)c7)CC6)nn5)C4)C3)cc1)=NC1(CC1)c1nnc(C)n1-2 (stereo partly drawn) [I-470]
[1]; 72 h
  GI50: < 500 nM
[2]
  GI50: 500 to 1500 nM
VCaP cells
  GI50: 500 to 1500 nM

## Cc1sc2c(c1C)C(c1ccc(OCC3CC4(CCCN(c5ccc(C(=O)N[C@H]6CC[C@H](Oc7ccc(C#N)c(Cl)c7)CC6)nn5)C4)C3)cc1)=NC1(CC1)c1nnc(C)n1-2 (stereo partly drawn) [I-471]
[1]
  GI50: < 500 nM
[2]
  GI50: > 3000 nM
VCaP cells
  GI50: 1500 to 3000 nM

## Cc1sc2c(c1C)C(c1ccc(OC3CC4(CCCN(c5ccc(C(=O)N[C@H]6CC[C@H](Oc7ccc(C#N)c(Cl)c7)CC6)nn5)C4)C3)cc1)=NCc1nnc(C)n1-2 (stereo partly drawn) [I-473]
[1]; 72 h
  GI50: < 500 nM
[2]; 72 h
  GI50: > 3000 nM
VCaP cells; Homo sapiens, VCaP, 72 h
  GI50: < 500 nM

## Cc1sc2c(c1C)C(c1ccc(CC3CC4(CCCN(c5ccc(C(=O)N[C@H]6CC[C@H](Oc7ccc(C#N)c(Cl)c7)CC6)nn5)C4)C3)cc1)=NCc1nnc(C)n1-2 (stereo partly drawn) [I-474]
[1]; 72 h
  GI50: < 500 nM
[2]
  GI50: > 3000 nM
VCaP cells
  GI50: > 3000 nM

## Cc1sc2c(c1C)C(c1ccc(OCC3CC4(CCCN(c5ccc(C(=O)N[C@H]6CC[C@H](Oc7ccc(C#N)c(Cl)c7)CC6)nn5)C4)C3)cc1)=NCc1nnc(C)n1-2 (stereo partly drawn) [I-475]
[1]; 72 h
  GI50: < 500 nM
[2]
  GI50: > 3000 nM
VCaP cells
  GI50: < 500 nM

## Cc1sc2c(c1C)C(c1ccc(N3CCC4(CCCN(c5ccc(C(=O)N[C@H]6CC[C@H](Oc7ccc(C#N)c(Cl)c7)CC6)nn5)C4)CC3)nc1)=NCc1nnc(C)n1-2 [I-476]
[1]; 72 h
  GI50: < 500 nM
[2]; 72 h
  GI50: > 3000 nM
VCaP cells; Homo sapiens, VCaP, 72 h
  GI50: < 500 nM

## Cc1sc2c(c1C)C(c1ccc(N3CCC4(CC3)CCN(c3ccc(C(=O)N[C@H]5CC[C@H](Oc6ccc(C#N)c(Cl)c6)CC5)nn3)C4)nc1)=NC1(CC1)c1nnc(C)n1-2 [I-477]
[1]; 72 h
  GI50: < 500 nM
[2]; 72 h
  GI50: 500 to 1500 nM
VCaP cells; Homo sapiens, VCaP, 72 h
  GI50: 1500 to 3000 nM

## Cc1sc2c(c1C)C(c1ccc(N3CC(C4CCN(c5ccc(C(=O)N[C@H]6CC[C@H](Oc7ccc(C#N)c(Cl)c7)CC6)nn5)CC4)C3)nc1)=NCc1nnc(C)n1-2 [I-478]
[1]; 72 h
  GI50: < 500 nM
[2]; 72 h
  GI50: > 3000 nM
VCaP cells; Homo sapiens, VCaP, 72 h
  GI50: < 500 nM

## Cc1sc2c(c1C)C(c1ccc(OC3CC4(C3)CC3(CCN(c5ccc(C(=O)N[C@H]6CC[C@H](Oc7ccc(C#N)c(Cl)c7)CC6)nn5)CC3)C4)nc1)=NCc1nnc(C)n1-2 [I-479]
[1]; 72 h
  GI50: < 500 nM
[2]; 72 h
  GI50: > 3000 nM
VCaP cells; Homo sapiens, VCaP, 72 h
  GI50: < 500 nM

## Cc1sc2c(c1C)C(c1ccc(N3CCC(CN4CCN(c5ccc(C(=O)N[C@H]6CC[C@H](Oc7ccc(C#N)c(Cl)c7)CC6)nn5)CC4)CC3)cc1)=NC1(CC1)c1nnc(C)n1-2 [I-480]
[1]; 72 h
  GI50: < 500 nM
[2]; 72 h
  GI50: 500 to 1500 nM
VCaP cells; Homo sapiens, VCaP, 72 h
  GI50: < 500 nM

## Cc1sc2c(c1C)C(c1ccc(C#CC3CC4(CCCN(c5ccc(C(=O)N[C@H]6CC[C@H](Oc7ccc(C#N)c(Cl)c7)CC6)nn5)C4)C3)cn1)=NC(C)c1nnc(C)n1-2 (stereo partly drawn) [I-481]
[1]; 72 h
  GI50: < 500 nM
[2]
  GI50: < 500 nM
VCaP cells
  GI50: < 500 nM

## Cc1sc2c(c1C)C(c1ccc(OCC3CC4(CCCN(c5ccc(C(=O)N[C@H]6CC[C@H](Oc7ccc(C#N)c(Cl)c7)CC6)nn5)C4)C3)cn1)=N[C@@H](C)c1nnc(C)n1-2 (stereo partly drawn) [I-482]
[1]; 72 h
  GI50: < 500 nM
[2]; 72 h
  GI50: < 500 nM
VCaP cells; Homo sapiens, VCaP, 72 h
  GI50: < 500 nM

## Cc1sc2c(c1C)C(c1ccc(OCC3CC4(CCCN(c5ccc(C(=O)N[C@H]6CC[C@H](Oc7ccc(C#N)c(Cl)c7)CC6)nn5)C4)C3)cn1)=N[C@@H](C)c1nnc(C)n1-2 (stereo partly drawn) [I-483]
[1]
  GI50: < 500 nM
[2]
  GI50: < 500 nM
VCaP cells
  GI50: < 500 nM

## Cc1sc2c(c1C)C(c1ccc(OC3CC4(CCN(c5ccc(C(=O)N[C@H]6CC[C@H](Oc7ccc(C#N)c(Cl)c7)CC6)nn5)CC4)C3)cn1)=N[C@@H](C)c1nnc(C)n1-2 [I-484]
[1]; 72 h
  GI50: < 500 nM
[2]
  GI50: 500 to 1500 nM
VCaP cells
  GI50: < 500 nM

## Cc1sc2c(c1C)C(c1ccc(N3CCC4(CC3)CCN(c3ccc(C(=O)N[C@H]5CC[C@H](Oc6ccc(C#N)c(Cl)c6)CC5)nn3)CC4)cc1)=N[C@@H](C)c1nnc(C)n1-2 [I-485]
[1]; 72 h
  GI50: < 500 nM
[2]; 72 h
  GI50: < 500 nM
VCaP cells; Homo sapiens, VCaP, 72 h
  GI50: < 500 nM

## Cc1sc2c(c1C)C(c1ccc(OCC3CC4(CCCN(c5ccc(C(=O)N[C@H]6CC[C@H](Oc7ccc(C#N)c(Cl)c7)CC6)nn5)C4)C3)nc1)=NC1(CC1)c1nnc(C)n1-2 (stereo partly drawn) [I-486]
[1]; 72 h
  GI50: < 500 nM
[2]; 72 h
  GI50: > 3000 nM
VCaP cells; Homo sapiens, VCaP, 72 h
  GI50: < 500 nM

## Cc1sc2c(c1C)C(c1ccc(OCC3CC4(CCCN(c5ccc(C(=O)N[C@H]6CC[C@H](Oc7ccc(C#N)c(Cl)c7)CC6)nn5)C4)C3)nc1)=NC1(CC1)c1nnc(C)n1-2 (stereo partly drawn) [I-487]
[1]
  GI50: < 500 nM
[2]
  GI50: > 3000 nM
VCaP cells
  GI50: < 500 nM

## Cc1sc2c(c1C)C(c1ccc(CC3CC4(CCCN(c5ccc(C(=O)N[C@H]6CC[C@H](Oc7ccc(C#N)c(Cl)c7)CC6)nn5)C4)C3)cc1)=NCc1nnc(C)n1-2 (stereo partly drawn) [I-488]
[1]
  GI50: < 500 nM
[2]; 72 h
  GI50: > 3000 nM
VCaP cells
  GI50: < 500 nM

## Cc1sc2c(c1C)C(c1ccc(OCC3CC4(CCCN(c5ccc(C(=O)N[C@H]6CC[C@H](Oc7ccc(C#N)c(Cl)c7)CC6)nn5)C4)C3)cc1)=NCc1nnc(C)n1-2 (stereo partly drawn) [I-489]
[1]
  GI50: < 500 nM
[2]
  GI50: > 3000 nM
VCaP cells
  GI50: < 500 nM

## Cc1sc2c(c1C)C(c1ccc(N3CCC4(CC3)CCN(c3ccc(C(=O)N[C@H]5CC[C@H](Oc6ccc(C#N)c(Cl)c6)CC5)nn3)CC4)cc1)=NC1(CC1)c1nnc(C)n1-2 [I-490]
[1]; 72 h
  GI50: < 500 nM
[2]; 72 h
  GI50: > 3000 nM
VCaP cells; Homo sapiens, VCaP, 72 h
  GI50: > 3000 nM

## Cc1sc2c(c1C)C(c1ccc(N3CCN(CC4CCN(c5ccc(C(=O)N[C@H]6CC[C@H](Oc7ccc(C#N)c(Cl)c7)CC6)nn5)CC4)CC3)cc1)=NC1(CC1)c1nnc(C)n1-2 [I-491]
[1]; 72 h
  GI50: < 500 nM
[2]; 72 h
  GI50: < 500 nM
VCaP cells; Homo sapiens, VCaP, 72 h
  GI50: > 3000 nM

## Cc1sc2c(c1C)C(c1ccc(N3CCC(CC4CCN(c5ccc(C(=O)N[C@H]6CC[C@H](Oc7ccc(C#N)c(Cl)c7)CC6)nn5)CC4)CC3)cc1)=NC1(CC1)c1nnc(C)n1-2 [I-492]
[1]; 72 h
  GI50: < 500 nM
[2]; 72 h
  GI50: > 3000 nM
VCaP cells; Homo sapiens, VCaP, 72 h
  GI50: < 500 nM

## Cc1sc2c(c1C)C(c1ccc(COC3CCC4(CCCN(c5ccc(C(=O)N[C@H]6CC[C@H](Oc7ccc(C#N)c(Cl)c7)CC6)nn5)C4)C3)cc1)=NC1(CC1)c1nnc(C)n1-2 (stereo partly drawn) [I-493]
[1]; 72 h
  GI50: < 500 nM
[2]
  GI50: 500 to 1500 nM
VCaP cells
  GI50: > 3000 nM

## Cc1sc2c(c1C)C(c1ccc(C3CCC4(CC3)CCN(c3ccc(C(=O)N[C@H]5CC[C@H](Oc6ccc(C#N)c(Cl)c6)CC5)nn3)C4)cc1)=N[C@@H](C)c1nnc(C)n1-2 (stereo partly drawn) [I-494]
[1]
  GI50: < 500 nM
[2]; 72 h
  GI50: < 500 nM
VCaP cells; Homo sapiens, VCaP, 72 h
  GI50: < 500 nM

## Cc1sc2c(c1C)C(c1ccc(C3CCC4(CC3)CCN(c3ccc(C(=O)N[C@H]5CC[C@H](Oc6ccc(C#N)c(Cl)c6)CC5)nn3)C4)cc1)=N[C@@H](C)c1nnc(C)n1-2 (stereo partly drawn) [I-495]
[1]
  GI50: > 3000 nM
[2]
  GI50: < 500 nM
VCaP cells
  GI50: < 500 nM

— patent publication US20260109707A1, “HETEROBIFUNCTIONAL COMPOUNDS AND METHODS OF TREATING DISEASE” (Halda Therapeutics OpCo. Inc., priority 2022, published 2026)
